Patent US7541478B2, “Coumarin derivative and use thereof” (Takeda Pharmaceutical Company Limited, priority 2004, dated 2009)
pIC50: −log10 of the molar value.

Columns and labels:
[1] = Oral absorbability: blood level of Compound X after oral administration to rabbits; format: in vivo; conditions: male New Zealand white rabbits (n=3), 0.5% methylcellulose suspension, 10 mg/kg in terms of Compound X, blood level of Compound X measured
Protocol: [Method] Male New Zealand white rabbits (n=3) were forced to take Compound A, B or X orally (0.5% suspension in methylcellulose, the dose was 10 mg/kg in terms of Compound X). A blood level of Compound X was measured with time to determine the maximum blood level (Cmax) and time required for reaching the maximum blood level (Tmax). Compound X:(2E)-3-{3-[7-chloro-3-(2-{[4-fluoro-2-(trifluoromethyl)phenyl]amino}-2-oxoethyl)-6-methyl-2-oxo-2H-chromen-4yl]phenyl}acrylic acid described in International Publication WO02/06264.

[2] = biological target: T1, mouse abdominal macrophage microsome ACAT (Mus musculus, UniProt Q61263); assay: ACAT inhibitory activity (3H-oleyl-CoA, cholesteryl ester formation); format: biochemical; conditions: microsome from thioglycolate-stimulated C57BL6J mouse macrophage; pre-incubated 37° C. 10 minutes, reaction 37° C. 20 minutes; read-out: IC50 (ACAT inhibiting rate 50%)
T1 construct: then ultracentrifuged (4° C., 50,000 rpm, 90 minutes) to prepare a microsome; from tissue; host or cells: abdominal (peritoneal) macrophages of thioglycolate-stimulated C57BL6J mice, cultured 24 h with rabbit beta-VLDL; microsomal fraction
T1 sequence (Q61263 1-540): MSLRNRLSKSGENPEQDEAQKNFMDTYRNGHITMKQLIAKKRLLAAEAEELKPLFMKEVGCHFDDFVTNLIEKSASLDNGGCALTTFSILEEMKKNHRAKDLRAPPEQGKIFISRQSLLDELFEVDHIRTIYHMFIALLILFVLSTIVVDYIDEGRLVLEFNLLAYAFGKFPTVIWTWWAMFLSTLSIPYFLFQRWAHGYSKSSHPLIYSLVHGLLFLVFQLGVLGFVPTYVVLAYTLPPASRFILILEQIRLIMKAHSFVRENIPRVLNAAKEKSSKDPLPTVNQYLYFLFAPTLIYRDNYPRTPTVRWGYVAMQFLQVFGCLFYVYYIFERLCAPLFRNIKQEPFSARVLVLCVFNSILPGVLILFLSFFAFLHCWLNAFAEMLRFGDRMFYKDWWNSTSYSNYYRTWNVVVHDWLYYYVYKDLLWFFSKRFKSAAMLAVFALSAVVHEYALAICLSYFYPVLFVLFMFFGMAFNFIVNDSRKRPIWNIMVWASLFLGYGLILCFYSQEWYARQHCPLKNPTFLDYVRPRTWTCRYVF
Protocol: According to the method of Hakamada et al. (Experimental Medicine Supplement vol. 14, No. 12, Circulation Research Protocol, p, 49-52, 1996), an abdominal macrophage was taken from a thioglycolate-stimulated C57BL6J mouse and cultured for 24 hours in a RPMI 1640-25 mM HEPES (pH7.0) medium containing rabbit β-very low density lipoprotein (β-VLDL, 150 μg cholesterol/ml) which had been prepared by the method of Ishii et al. (Ishii I et al., Arterioscler, Thromb., 12, 1139-1145, 1992). The abdominal macrophage was then collected by centrifugation (4° C., 1.000 rpm, 5 minutes) and sonicated. The sonicated liquid was centrifuged (4° C., 5000 rpm, 15 minutes) and then ultracentrifuged (4° C., 50,000 rpm, 90 minutes) to prepare a microsome. The microsome thus obtained was used for measuring ACAT inhibitory activity of a test compound as mouse abdominal macrophage microsome ACAT.
A mixture of a test compound, cholesterol-albumin-containing-Tris-HCL buffer (pH 7.5) and mouse abdominal macrophage microsome ACAT was pre-incubated at 37° C. for 10 minutes, and ^3H-oleyl-CoA was added to react at 37° C. for 20 minutes. […] The extract was subjected to silica gel thin chromatography (petroleum ether:diethyl ether:acetic acid=9:1:0.1 v/v), and the resulting ^3H-CE fraction was measured with a scintillation counter. […]

Cmax (maximum blood level of Compound X) [1]: 132 ± 29 ng/mL
Tmax (time required for reaching the maximum blood level) [1]: 40.2 ± 17.4 min
pIC50 [2]: 5.71
Substance: monocalcium bis((2E)-3-[3-[7-chloro-3-(2-[[4-fluoro-2-(trifluoromethyl)phenyl]amino]-2-oxoethyl)-6-methyl-2-oxo-2H-chromen-4-yl]phenyl]acrylate) trihydrate [Compound A]
